Assays:
[1] = tested on: platelet aggregation (using platelet rich plasma (PRP)); assay: Platelet Aggregation Assay (without esterase); assay type: cell-based; conditions: human platelet rich plasma
Experimental: (§1) Platelet Aggregation Assay: Venous blood was obtained from the arm of a healthy human donor who was drug-free and aspirin-free for at least two weeks prior to blood collection. Blood was collected into 10 mL citrated Vacutainer tubes. The blood was centrifuged for 15 minutes at 150×g at room temperature, and platelet-rich plasma (PRP) was removed. The remaining blood was centrifuged for 15 minutes at 1500×g at room temperature, and platelet-poor plasma (PPP) was removed. Samples were assayed on a aggregometer (PAP-4 Platelet Aggregation Profiler), using PPP as the blank (100% transmittance). 200 μL of PRP was added to each micro test tube, and transmittance was set to 0%. 20 μL of various agonists (ADP, collagen, arachidonate, epinephrine, thrombin) were added to each tube, and the aggregation profiles were plotted (% transmittance versus time). The results are expressed as % inhibition of agonist-inducedplatelet aggregation. For the IC50 evaluation, the test compounds were added at various concentrations prior to the activation of the platelets.
(§2) Table A below sets forth the antiplatelet activity of representative compounds of the present invention. The indicated compounds were tested for their ability to inhibit platelet aggregation (using platelet rich plasma (PRP)). The IC50 value (the concentration of antagonist which inhibits platelet aggregation by 50% relative to a control lacking the antagonist) is shown. In Table 5 the IC50 values are expressed as: +++=IC50 of <10 μM (μM=micromolar).

[2] = tested on: platelet aggregation (using platelet rich plasma (PRP)); assay: Platelet Aggregation Assay (with esterase; ester prodrugs preincubated with porcine liver esterase); assay type: cell-based; conditions: human platelet rich plasma; preincubated with 100 IU/mL Porcine liver esterase 2 hours at 37° C.; 100 μM Adenosine Diphosphate
Experimental: as §1
Ester prodrugs were preincubated (10^-3 M F.C.) with 100 IU/mL Porcine liver esterase (Sigma Chemical Co., St. Louis, Mo., #E-3128) for 2 hours at 37° C. Aliquots are then diluted in 0.1 M Tris, pH 7.4, to the desired concentrations. Aliquots of 20 μl of the esterase pretreated prodrugs are added to 200 μl of human platelet rich plasma. Samples were placed in platelet profiler (aggregometer) for 8 minutes at 37° C., followed by the addition of 100 μM Adenosine Diphosphate, (Sigma Chemical Co., St. Louis, Mo., #A-6521), to induce platelet aggregation. Platelet aggregation was allowed to proceed for 5 minutes. Percent inhibition is calculated using percent aggregation in the presence of the test compound divided by percent aggregation of control, times 100. This value is subtracted from 100, yielding percent inhibition. Calculation of IC50 is performed on a Texas Instruments TI59 with an IC50 program.
as §2

Cc1noc(C)c1S(=O)(=O)N[C@@H](CNC(=O)CC1CC(c2ccc(C(=N)N)cc2)N(C)C(=O)O1)C(=O)O (stereo partly drawn) [Example 336, Cis-3-[[[4-[4-(aminoiminomethyl)phenyl]tetrahydro-3-methyl-2-oxo-2H-1,3-oxazin-6-yl]acetyl]amino]-N-[(3,5-dimethylisoxazol-4-yl)sulfonyl]-L-alanine monohydrogenchloride] was tested, and the IC50 [1] was < 10 µM.
Cc1cccc(S(=O)(=O)N[C@@H](CNC(=O)CC2CC(c3ccc(C(=N)N)cc3)N(Cc3ccccc3)O2)C(=O)O)c1 (stereo partly drawn) [Example 17, Cis-3-[2-[2-benzyl-3-[4-(aminoiminomethyl)phenyl]-isoxazolidin-5-yl]acetyl]amino-N-(3-methylphenylsulfonyl)-L-alanine monohydrogenchloride] was tested, and the IC50 [1] was < 10 µM.
For Cc1cccc(S(=O)(=O)N[C@@H](CNC(=O)CC2CC(c3ccc(C(=N)N)cc3)N(Cc3ccccc3)C(=O)O2)C(=O)O)c1 (stereo partly drawn) [Example 322, Cis-3-[[[4-[4-(aminoiminomethyl)phenyl]tetrahydro-3-benzyl-2-oxo-2H-1,3-oxazin-6-yl]acetyl]amino]-N-[(3-methylphenyl)sulfonyl]-L-alanine monohydrogenchloride], the IC50 [1] was < 10 µM.
Cc1noc(C)c1S(=O)(=O)N[C@@H](CNC(=O)C[C@@H]1C[C@H](c2ccc(C(=N)N)cc2)N(C)O1)C(=O)O (relative stereo) [Example 38, Cis-3-[2-[2-methyl-3-[4-(aminoiminomethyl)phenyl]-isoxazolidin-5-yl]acetyl]amino-N-(3,5-dimethyloxazol-4-ylsulfonyl)-L-alanine monohydrogenchloride] was tested, and the IC50 [1] was < 10 µM.
For Cc1cccc(S(=O)(=O)N[C@@H](CNC(=O)CC2CC(c3ccc(C(=N)N)cc3)N(c3ccccc3)O2)C(=O)O)c1 (stereo partly drawn) [Example 71, Cis-3-[2-[2-phenyl-[4-(aminoiminomethyl)phenyl]-isoxazolidin-5-yl]actetyl]amino-N-(3-methylphenylsulfonyl)-L-alanine monohydrogenchloride], the IC50 [1] was < 10 µM.
With Cc1cccc(S(=O)(=O)N[C@@H](CNC(=O)CC2CC(c3ccc(C(=N)N)cc3)N(C)C(=O)O2)C(=O)O)c1 (stereo partly drawn) [Example 301, Cis-3-[[[4-[4-(aminoiminomethyl)phenyl]tetrahydro-3-methyl-2-oxo-2H-1,3-oxazin-6-yl]acetyl]amino]-N-[(3-methylphenyl)sulfonyl]-L-alanine monohydrogenchloride] the IC50 [1] was < 10 µM.
With Cc1ccccc1S(=O)(=O)N[C@@H](CNC(=O)CC1CC(c2ccc(C(=N)N)cc2)N(C)C(=O)O1)C(=O)O (stereo partly drawn) [Example 328, Cis-3-[[[4-[4-(aminoiminomethyl)phenyl]tetrahydro-3-methyl-2-oxo-2H-1,3-oxazin-6-yl]acetyl]amino]-N-[(2-methylphenyl)sulfonyl]-L-alanine monohydrogenchloride] the IC50 [1] was < 10 µM.
With Cc1cccc(S(=O)(=O)N[C@@H](CNC(=O)CC2CC(c3ccc(C(=N)N)cc3)N(C(C)C)O2)C(=O)O)c1 (stereo partly drawn) [Example 29, Cis-3-[2-[2-isopropyl-3-[4-(aminoiminomethyl)phenyl]-isoxazolidin-5-yl]acetyl]amino-N-(3-methylphenylsulfonyl)-L-alanine monohydrogenchloride] the IC50 [1] was < 10 µM.
In the case of Cc1cccc(S(=O)(=O)N[C@@H](CNC(=O)CC2CC(c3ccc(C(=N)N)cc3)N(C)O2)C(=O)O)c1 (stereo partly drawn) [Example 2, Cis-3-[2-[2-methyl-3-[4-(aminoiminomethyl)phenyl]-isoxazolidin-5-yl]acetyl]amino-N-(3-methylphenylsulfonyl)-L-alanine monohydrogenchloride], the IC50 [1] is reported as < 10 µM.
In the case of CCCCOC(=O)N[C@@H](CNC(=O)CC1CC(c2ccc(C(=N)N)cc2)N(C)O1)C(=O)O (stereo partly drawn) [Example 69, Cis-3-[2-[2-methyl-3-[4-(aminoiminomethyl)phenyl]-isoxazolidin-5-yl]acetyl]amino-N-n-butyloxycarbonyl-L-alanine monohydrogenchloride], the IC50 [1] is reported as < 10 µM.
For CCCCOC(=O)N[C@@H](CNC(=O)CC1CC(c2ccc(C(=N)N)cc2)N(C)C(=O)O1)C(=O)OC (stereo partly drawn) [Example 355, Cis-3-[[[4-[4-(aminoiminomethyl)phenyl]tetrahydro-3-methyl-2-oxo-2H-1,3-oxazin-6-yl]acetyl]amino]-N-(n-butyloxycarbonyl)-L-alanine methyl ester monotrifluoroacetic acid], the IC50 [2] was < 10 µM.
In the case of CCCCOC(=O)N[C@@H](CNC(=O)CC1CC(c2ccc(C(=N)N)cc2)N(C)C(=O)O1)C(=O)O (stereo partly drawn) [Example 356, Cis-3-[[[4-[4-(aminoiminomethyl)phenyl]tetrahydro-3-methyl-2-oxo-2H-1,3-oxazin-6-yl]acetyl]amino]-N-(n-butyloxycarbonyl)-L-alanine monohydrogenchloride], the IC50 [1] is reported as < 10 µM.
COC(=O)[C@H](CNC(=O)CC1CC(c2ccc(C(=N)N)cc2)N(C)O1)NS(=O)(=O)c1cccc(C)c1 (stereo partly drawn) [Example 1, Cis-3-[2-[2-methyl-3-[4-(aminoiminomethyl)phenyl]-isoxazolidin-5-yl]-acetyl]amino-N-(3-methylphenylsulfonyl)-L-alanine Methyl Ester Monotrifluoroacetic Acid] was tested, and the IC50 [2] was < 10 µM.
With Cc1ccccc1S(=O)(=O)N[C@@H](CNC(=O)CC1CC(c2ccc(C(=N)N)cc2)N(C)O1)C(=O)O (stereo partly drawn) [Example 33, Cis-3-[2-[2-methyl-3-[4-(aminoiminomethyl)phenyl]-isoxazolidin-5-yl]acetyl]amino-N-(2-methylphenylsulfonyl)-L-alanine monohydrogenchloride] the IC50 [1] was < 10 µM.
COC(=O)[C@H](CNC(=O)C[C@@H]1CC(c2ccc(C(=N)N)cc2)N(Cc2ccccc2)O1)NS(=O)(=O)c1cccc(C)c1 (relative stereo) [Example 16, Cis-3-[2-[2-benzyl-3-[4-(aminoiminomethyl)phenyl]-isoxazolidin-5-yl]acetyl]-N-(3-methylphenylsulfonyl)-L-alanine methyl ester monotrifluoroacetic acid] was tested, and the IC50 [2] was < 10 µM.
